According to PubChem BioAssay (NCI):
Values joined by “and” are separate entries in the source; they are usually repeats but may differ in a detail not shown here. Equal entries are not always repeated.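 Compound exposure: 48 hours, 5 concentrations, 96-well plates. Abbreviation: GI50, concentration required for 50% inhibition of growth. TGI is the concentration that stops growth completely.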 Where a SMILES comes first, the peptide text is derived from it. The star is where a group is joined. Boc = CC(C)(C)OC(=O)*; Bn = c1ccc(C*)cc1

Legend:
Test in all cases: DTP human tumour cell line panel, 48 h; in the data active = GI50 below about 0.43 µM; inactive = the rest
[1] = tested on: SF-295 CNS
[2] = tested on: ACHN renal
[3] = tested on: HL-60(TB) leukemia
[4] = tested on: RXF 393 renal
[5] = tested on: OVCAR-8 ovarian
[6] = tested on: NCI-H226 lung
[7] = tested on: MCF7 breast
[8] = tested on: NCI/ADR-RES ovarian
[9] = tested on: OVCAR-5 ovarian
[10] = tested on: HCT-15 colon
[11] = tested on: HOP-62 NSCLC
[12] = tested on: SR leukemia
[13] = tested on: NCI-H522 lung
[14] = tested on: UO-31 renal
[15] = tested on: UACC-257 melanoma
[16] = tested on: SW-620 colon
[17] = tested on: LOX IMVI melanoma
[18] = tested on: SNB-75 CNS
[19] = tested on: A549 NSCLC
[20] = tested on: MDA-MB-231 breast
[21] = tested on: UACC-62 melanoma
[22] = tested on: 786-0 renal
[23] = tested on: HS 578T breast
[24] = tested on: CAKI-1 renal
[25] = tested on: CCRF-CEM leukemia
[26] = tested on: SF-539 CNS
[27] = tested on: SK-OV-3 ovarian
[28] = tested on: HT29 colon
[29] = tested on: SN12C renal
[30] = tested on: IGROV1 ovarian
[31] = tested on: OVCAR-3 ovarian
[32] = tested on: EKVX NSCLC
[33] = tested on: K-562 leukemia
[34] = tested on: PC-3 prostate
[35] = tested on: COLO 205 colon
[36] = tested on: MOLT-4 leukemia
[37] = tested on: SK-MEL-28 melanoma
[38] = tested on: DU-145 prostate
[39] = tested on: A498 renal
[40] = tested on: U251 CNS
[41] = tested on: SK-MEL-5 melanoma
[42] = tested on: OVCAR-4 ovarian
[43] = tested on: HOP-92 NSCLC
[44] = tested on: HCT-116 colon
[45] = tested on: BT-549 breast
[46] = tested on: SF-268 CNS
[47] = tested on: M14 melanoma
[48] = tested on: NCI-H23 lung
[49] = tested on: MDA-MB-435
[50] = tested on: KM12 colon
[51] = tested on: NCI-H460 lung
[52] = tested on: T-47D breast
[53] = tested on: MDA-N
[54] = tested on: RPMI-8226 leukemia
[55] = tested on: HCC-2998 colon
[56] = tested on: MALME-3M melanoma
[57] = tested on: TK-10 renal
[58] = tested on: SNB-19 CNS
[59] = tested on: SK-MEL-2 melanoma

CNC(=O)C(CC(C)C)NC(=O)C(C)NC(=O)C(Cc1ccc(OCc2ccccc2)cc1)NC(=O)C(COCc1ccccc1)NC(=O)OC(C)(C)C (configuration not stated) (Boc-S(Bn)Y(Bn)AL-NHMe; configuration not given here)
inactive: GI50 [1] > 43.9 µM and 21 µM | GI50 [2] > 100 µM and 13 µM | GI50 [3] 9.51 µM and 3.9 µM | GI50 [4] 47.6 µM and 7.04 µM | GI50 [6] 44.3 µM and 15.2 µM | GI50 [9] > 73.2 µM and 21.2 µM | GI50 [18] 18.9 µM and 9 µM | GI50 [19] > 70.9 µM and 16.9 µM | GI50 [25] 4.39 µM and 10.5 µM | GI50 [29] > 52.3 µM and 18.8 µM | GI50 [31] 42.1 µM and 19.1 µM | GI50 [32] > 100 µM and 26.4 µM | GI50 [34] 19.2 µM and 2.53 µM | GI50 [35] 17.3 µM and 2.11 µM | GI50 [37] > 62.5 µM and 14.1 µM | GI50 [39] 33.7 µM and 12.5 µM | GI50 [41] 47.9 µM and 11.7 µM | GI50 [47] 42.1 µM and 15 µM | GI50 [49] 20.7 µM and 10.1 µM | GI50 [51] > 41 µM and 18.3 µM | GI50 [52] 28.2 µM and 5.15 µM | GI50 [54] 24.8 µM and 4.27 µM | GI50 [55] 29.3 µM and 3.13 µM | GI50 [57] > 73.8 µM and 29.1 µM
> 100 µM and 24.3 µM: TGI [4]
> 87.3 µM and 9.17 µM: TGI [55]
64.4 µM and 27 µM: TGI [54]
> 61.4 µM and 42.6 µM: TGI [51]
37.4 µM: TGI [13]
> 44.2 µM and 40.3 µM: TGI [50]
> 100 µM: TGI [2] | TGI [8] | TGI [10] | TGI [14] | TGI [15] | TGI [24] | TGI [38] | TGI [57]
30 µM and 30.9 µM: TGI [53]
> 86.4 µM and 42.1 µM: TGI [29]
55.5 µM and 40.4 µM: TGI [45]
> 41.3 µM and 31.7 µM: TGI [40]
> 38.9 µM and 30.9 µM: TGI [28]
> 71.1 µM and 43.3 µM: TGI [48]
58.4 µM and 18.6 µM: TGI [34]
> 100 µM and 30.9 µM: TGI [37]
> 31.6 µM: TGI [21]
53.9 µM and 63.7 µM: TGI [30]
> 48 µM and 38.4 µM: TGI [33]
> 100 µM and 51.4 µM: TGI [19]
35.5 µM and 26.2 µM: TGI [7]
18.9 µM and 39.6 µM: TGI [25]
31 µM and 28.7 µM: TGI [16]
> 68.5 µM and 39 µM: TGI [6]
41.2 µM and 45.4 µM: TGI [42]
> 100 µM and 51.6 µM: TGI [9]
30.2 µM and > 100 µM: TGI [3]
> 57.8 µM: TGI [26]
> 100 µM and 77.9 µM: TGI [32]
> 100 µM and 18.1 µM: TGI [56]
> 74 µM and 27.1 µM: TGI [52]
> 61 µM and 41.2 µM: TGI [1]
94 µM and 30.3 µM: TGI [39]
20.1 µM and 20.5 µM: TGI [44]
35 µM and 48.5 µM: TGI [5]
58.1 µM and 31.4 µM: TGI [23]
> 46.1 µM and 86.9 µM: TGI [12]
38.3 µM and 9.52 µM: TGI [35]
> 31.6 µM and 22.9 µM: TGI [18]
> 60.3 µM and 39.6 µM: TGI [27]
> 55.9 µM and 27.9 µM: TGI [49]
> 100 µM and 23.9 µM: TGI [41]
> 58 µM and 36.9 µM: TGI [58]
53.8 µM and 46.5 µM: TGI [46]
27.5 µM and 48.8 µM: TGI [17]
35.7 µM and 36 µM: TGI [20]
> 100 µM and 44 µM: TGI [31]
> 100 µM and 28.2 µM: TGI [47]
> 80.8 µM and 51.7 µM: TGI [43]
22.9 µM and 38.5 µM: TGI [36]
54.9 µM and 39.4 µM: TGI [22]
> 53.2 µM and 38.1 µM: TGI [11]

CC(=O)n1[nH]c(=O)n(-c2ccccc2)c1=O
> 100 µM: TGI [1] | TGI [2] | TGI [3] | TGI [4] | TGI [5] | TGI [6] | TGI [7] | TGI [8] | TGI [9] | TGI [10] | TGI [11] | TGI [12] | TGI [13] | TGI [14] | TGI [15] | TGI [16] | TGI [17] | TGI [19] | TGI [20] | TGI [21] | TGI [22] | TGI [23] | TGI [24] | TGI [59] | TGI [25] | TGI [27] | TGI [28] | TGI [29] | TGI [30] | TGI [31] | TGI [32] | TGI [33] | TGI [34] | TGI [35] | TGI [36] | TGI [37] | TGI [38] | TGI [40] | TGI [41] | TGI [42] | TGI [44] | TGI [45] | TGI [46] | TGI [47] | TGI [48] | TGI [49] | TGI [50] | TGI [51] | TGI [52] | TGI [53] | TGI [54] | TGI [55] | TGI [56] | TGI [57] | TGI [58]

CN1CCN(Cc2nc3c(s2)CCc2sccc2-3)CC1
57 µM: TGI [21]
> 100 µM: TGI [1] | TGI [2] | TGI [4] | TGI [5] | TGI [6] | TGI [7] | TGI [8] | TGI [9] | TGI [10] | TGI [11] | TGI [13] | TGI [14] | TGI [15] | TGI [16] | TGI [18] | TGI [19] | TGI [20] | TGI [22] | TGI [23] | TGI [24] | TGI [59] | TGI [25] | TGI [27] | TGI [28] | TGI [29] | TGI [30] | TGI [31] | TGI [32] | TGI [33] | TGI [34] | TGI [35] | TGI [36] | TGI [38] | TGI [40] | TGI [41] | TGI [42] | TGI [44] | TGI [45] | TGI [46] | TGI [47] | TGI [48] | TGI [49] | TGI [50] | TGI [51] | TGI [52] | TGI [53] | TGI [54] | TGI [55] | TGI [56] | TGI [57] | TGI [58]
73 µM: TGI [37]
83.4 µM: TGI [39]
99.7 µM: TGI [12]
